{
  "source": "patent US9186369B2",
  "about": "“Purine nucleoside analogues for treating flaviviridae including hepatitis C” (Idenix Pharmaceuticals, Inc., priority 2003, dated 2015)",
  "data": [
    {"test_system": "MDK", "experiment": "Cytotoxicity assay (sulforhodamine staining, CC50)", "assay_type": "cell-based", "conditions": "MDK cells; 4 days incubation; concentration reducing cell number by 50%; preliminary results", "description": "Cells are seeded at a rate of between 5×10^3 and 5×10^4/well into 96-well plates in growth medium overnight at 37° C. in a humidified CO2 (5%) atmosphere. New growth medium containing serial dilutions of the drugs is then added. After incubation for 4 days, cultures are fixed in 50% TCA and stained with sulforhodamine. The optical density was read at 550 nm. The cytotoxic concentration was expressed as the concentration required to reduce the cell number by 50% (CC50).", "units": {"CC50": "µM"}, "values": [
      {"compound": "Cc1cn([C@@H]2O[C@](C)(CO)[C@@H](O)[C@H]2O)c(=O)[nH]c1=O", "note": "[β-D-4′-CH3-riboT]", "CC50": "> 250"},
      {"compound": "CC1(CO)OC(n2cc(F)c(=O)[nH]c2=O)C(O)C1O", "note": "[β-D-4′-CH3-ribo-5-fluoroU]", "CC50": "> 167"},
      {"compound": "C[C@]1(CO)O[C@@H](n2cnc3c(N)ncnc32)[C@H](O)[C@@H]1O", "note": "[β-D-4′-CH3-riboA]", "CC50": "> 250"},
      {"compound": "C[C@]1(CO)O[C@@H](n2cnc3c(=O)[nH]c(N)nc32)[C@H](O)[C@@H]1O", "note": "[β-D-4′-CH3-riboG]", "CC50": "> 250"},
      {"compound": "C[C@]1(CO)O[C@@H](n2ccc(N)nc2=O)[C@H](O)[C@@H]1O", "note": "[β-D-4′-CH3-riboC]", "CC50": "> 250"},
      {"compound": "C[C@]1(CO)O[C@@H](n2ccc(=S)[nH]c2=O)[C@H](O)[C@@H]1O", "note": "[β-D-4′-CH3-ribo-4-thioU]", "CC50": "> 250"}
    ]}
  ]
}
